According to ChEMBL document CHEMBL2074373, “Effect of the Mdr1a P-glycoprotein gene disruption on the tissue distribution of SDZ PSC 833, a multidrug resistance-reversing agent, in mice” (J Pharmacol Exp Ther, 1998):

Biological target: ATP-dependent translocase ABCB1 (Mus musculus, UniProt P21447)
Test: TP_TRANSPORTER: increase in brain concentration in mdr1a(-/-) mouse
Assay type: functional, organism-based
Conditions: in vivo

Chain of ATP-dependent translocase ABCB1 (P21447 whole entry): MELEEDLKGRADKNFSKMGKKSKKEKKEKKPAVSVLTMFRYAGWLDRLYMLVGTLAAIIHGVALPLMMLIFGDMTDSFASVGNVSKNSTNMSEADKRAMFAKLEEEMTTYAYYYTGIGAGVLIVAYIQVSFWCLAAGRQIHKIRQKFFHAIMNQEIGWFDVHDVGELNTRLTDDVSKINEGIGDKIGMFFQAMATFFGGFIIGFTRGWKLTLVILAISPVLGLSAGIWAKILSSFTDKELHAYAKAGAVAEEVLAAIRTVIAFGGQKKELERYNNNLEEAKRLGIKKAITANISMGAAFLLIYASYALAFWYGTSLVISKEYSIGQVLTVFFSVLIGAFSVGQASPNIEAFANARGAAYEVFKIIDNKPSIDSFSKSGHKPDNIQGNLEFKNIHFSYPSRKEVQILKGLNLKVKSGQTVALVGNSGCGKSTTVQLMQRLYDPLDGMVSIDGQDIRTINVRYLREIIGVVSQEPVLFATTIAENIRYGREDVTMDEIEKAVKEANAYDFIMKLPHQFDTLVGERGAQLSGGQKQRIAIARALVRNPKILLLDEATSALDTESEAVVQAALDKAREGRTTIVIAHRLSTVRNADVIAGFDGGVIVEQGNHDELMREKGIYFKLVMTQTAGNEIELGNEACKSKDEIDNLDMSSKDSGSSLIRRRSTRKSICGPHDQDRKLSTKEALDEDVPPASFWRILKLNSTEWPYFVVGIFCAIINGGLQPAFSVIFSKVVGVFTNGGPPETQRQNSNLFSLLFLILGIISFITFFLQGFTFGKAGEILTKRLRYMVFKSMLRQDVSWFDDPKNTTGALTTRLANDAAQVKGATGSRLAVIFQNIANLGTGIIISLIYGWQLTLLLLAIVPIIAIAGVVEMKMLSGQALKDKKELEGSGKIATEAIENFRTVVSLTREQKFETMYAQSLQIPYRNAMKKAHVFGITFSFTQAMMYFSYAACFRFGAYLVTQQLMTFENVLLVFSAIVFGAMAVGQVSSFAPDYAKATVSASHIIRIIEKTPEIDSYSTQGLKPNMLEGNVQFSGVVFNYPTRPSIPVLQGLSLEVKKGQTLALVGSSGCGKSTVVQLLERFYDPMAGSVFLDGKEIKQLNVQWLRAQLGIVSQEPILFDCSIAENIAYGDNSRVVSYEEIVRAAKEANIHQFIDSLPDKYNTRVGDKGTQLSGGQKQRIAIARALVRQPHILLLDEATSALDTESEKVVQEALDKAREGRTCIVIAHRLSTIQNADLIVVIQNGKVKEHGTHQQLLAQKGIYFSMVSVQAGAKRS

- Activity: substrate [+]
SMILES: C/C=C/C[C@@H](C)C(=O)[C@H]1C(=O)N[C@@H](C(C)C)C(=O)N(C)CC(=O)N(C)[C@@H](CC(C)C)C(=O)N[C@@H](C(C)C)C(=O)N(C)[C@@H](CC(C)C)C(=O)N[C@@H](C)C(=O)N[C@H](C)C(=O)N(C)[C@@H](CC(C)C)C(=O)N(C)[C@@H](CC(C)C)C(=O)N(C)[C@@H](C(C)C)C(=O)N1C [VALSPODAR]
